# Measurements taken from patent US20050037946A1, “Methods and compositions for treating cardiovascular disease using 1722, 10280, 59917, 85553, 10653, 9235, 21668, 17794, 2210, 6169, 10102, 21061, 17662, 1468, 12282, 6350, 9035, 1820, 23652, 7301, 8925, 8701, 3533, 9462, 9123, 12788, 17729, 65552, 1261, 21476, 33770, 9380, 2569654, 33556, 53656, …” (Millennium Pharmaceuticals, Inc., priority 2003, published 2005).
# How the values were obtained:
# 7301 mRNA = 7301 mRNA in livers of mice treated with ciprofibrate (TaqMan); type: in vivo; conditions: livers of mice during treatment
# From the text: (§1) This example describes the TaqMan™ procedure. The Taqman™ procedure is a quantitative, reverse transcription PCR-based approach for detecting mRNA. The RT-PCR reaction exploits the 5′ nuclease activity of AmpliTaq Gold™ DNA Polymerase to cleave a TaqMan™ probe during PCR. Briefly, cDNA was generated from the samples of interest, e.g., heart, kidney, liver, skeletal muscle, and various vessels, and used as the starting material for PCR amplification. In addition to the 5′ and 3′ gene-specific primers, a gene-specific oligonucleotide probe (complementary to the region being amplified) was included in the reaction (i.e., the Taqman™ probe). […]
# (§2) During the PCR reaction, cleavage of the probe separates the reporter dye and the quencher dye, resulting in increased fluorescence of the reporter. Accumulation of PCR products is detected directly by monitoring the increase in fluorescence of the reporter dye. When the probe is intact, the proximity of the reporter dye to the quencher dye results in suppression of the reporter fluorescence. […]
# 9123 mRNA = 9123 mRNA in livers of mice treated with ciprofibrate (TaqMan); type: in vivo; conditions: livers of mice during treatment
# From the text: as §1, §2
# 33770 mRNA = 33770 mRNA in livers of mice, ciprofibrate (TaqMan); type: in vivo; conditions: p=0.02
# From the text: as §1, §2
# 9380 mRNA [1] = assay: 9380 mRNA in livers of mice treated with ciprofibrate (TaqMan); type: in vivo
# From the text: as §1, §2
# 2569654 mRNA [2] = assay: 2569654 mRNA in livers of mice treated with Ciprofibrate (TaqMan); type: in vivo
# From the text: as §1, §2
# 2552 mRNA [3] = assay: 2552 mRNA in livers of mice (TaqMan); type: in vivo
# From the text: as §1, §2
# 19319 mRNA [4] = assay: 19319 mRNA in livers of mice administered ciprofibrate (TaqMan); type: in vivo
# From the text: as §1, §2
# 43969 = 43969 expression in livers of mice administered ciprofibrate (TaqMan); type: in vivo
# From the text: as §1, §2
# 8921 mRNA [5] = assay: 8921 mRNA in liver samples of mice treated with ciprofibrate (microarray); type: in vivo; conditions: liver samples of treated mice vs control liver samples, p=0.002
# 554 mRNA = 554 mRNA in livers of mice treated with ciprofibrate (microarray); type: in vivo; conditions: livers of treated mice vs control liver samples, p=0.006
# 16408 mRNA = 16408 mRNA in livers of mice treated with ciprofibrate (microarray); type: in vivo
# 42028 = 42028 expression in livers of mice treated with ciprofibrate (microarray); type: in vivo
# 112091 = 112091 expression in livers of wild-type mice treated with ciprofibrate; type: in vivo
# 54946 mRNA = 54946 mRNA in livers of mice, ciprofibrate (microarray or RT-PCR); type: in vivo; conditions: p=0.008
# 10653 mRNA = 10653 mRNA in livers of marmosets treated with lipid-lowering therapies (TaqMan); type: in vivo
# 9325 mRNA = 9325 mRNA in livers of marmosets (TaqMan); type: in vivo
# From the text: as §1, §2
# 21668 mRNA = 21668 mRNA in marmoset models treated with cholesterol lowering agents (TaqMan); type: in vivo
# 10102 mRNA = 10102 mRNA regulation by lipid lowering drugs (TaqMan)
# 8925 mRNA = 8925 mRNA in livers of marmosets treated with lipid-lowering therapies (TaqMan); type: in vivo
# 8701 mRNA = 8701 mRNA in livers of marmosets treated with lipid-lowering therapies (TaqMan); type: in vivo
# 3533 mRNA = 3533 mRNA regulation by lipid lowering drugs (TaqMan)
# From the text: (§3) This example describes the TaqMan™ procedure. The Taqman™ procedure is a quantitative, reverse transcription PCR-based approach for detecting mRNA. The RT-PCR reaction exploits the 5′ nuclease activity of AmpliTaq Gold™ DNA Polymerase to cleave a TaqMan™ probe during PCR. Briefly, cDNA was generated from the samples of interest, e.g., heart, kidney, liver, skeletal muscle, and various vessels, and used as the starting material for PCR amplification. In addition to the 5′ and 3′ gene-specific primers, a gene-specific oligonucleotide probe (complementary to the region being amplified) was included in the reaction (i.e., the Taqman™ probe). The TaqMan™ probe includes the oligonucleotide with a fluorescent reporter dye covalently linked to the 5′ end of the probe (such as FAM (6-carboxyfluorescein), TET (6-carboxy4,7,2′,7′-tetrachlorofluorescein), JOE (6-carboxy-4,5-dichloro-2,7-dimethoxyfluorescein), or VIC) and a quencher dye (TAMRA (6-carboxy-N,N,N′,N′-tetramethylrhodamine) at the 3′ end of the probe.
# (§4) During the PCR reaction, cleavage of the probe separates the reporter dye and the quencher dye, resulting in increased fluorescence of the reporter. Accumulation of PCR products is detected directly by monitoring the increase in fluorescence of the reporter dye. When the probe is intact, the proximity of the reporter dye to the quencher dye results in suppression of the reporter fluorescence. During PCR, if the target of interest is present, the probe specifically anneals between the forward and reverse primer sites. The 5′-3′ nucleolytic activity of the AmpliTaq™ Gold DNA Polymerase cleaves the probe between the reporter and the quencher only if the probe hybridizes to the target. The probe fragments are then displaced from the target, and polymerization of the strand continues. The 3′ end of the probe is blocked to prevent extension of the probe during PCR. […] RNA was prepared using the trizol method and treated with DNase to remove contaminating genomic DNA. cDNA was synthesized using standard techniques.
# 9462 mRNA = 9462 mRNA regulation by lipid lowering drugs (TaqMan)
# From the text: as §1, §2
# 17729 mRNA = 17729 mRNA in marmoset models (TaqMan); type: in vivo
# 9380 mRNA [6] = assay: 9380 mRNA in livers of marmosets (TaqMan); type: in vivo
# 2569654 mRNA [7] = assay: 2569654 mRNA in marmoset models (TaqMan); type: in vivo
# From the text: as §3, §4
# 53656 mRNA = 53656 mRNA in livers of Marmosets (TaqMan); type: in vivo
# 2552 mRNA [8] = assay: 2552 mRNA in marmoset livers (TaqMan); type: in vivo
# 19319 mRNA [9] = assay: 19319 mRNA in livers of marmosets (TaqMan); type: in vivo
# 8921 mRNA [10] = assay: 8921 mRNA expression in marmosets; type: in vivo
compound,measurement,setting,value
CC(C)(Oc1ccc(C2CC2(Cl)Cl)cc1)C(=O)O (centres unmarked) [ciprofibrate],7301 mRNA expression,7301 mRNA,down-regulated
same,9123 mRNA expression,9123 mRNA,upregulated
same,33770 mRNA downregulated,33770 mRNA,0.76 fold
same,9380 mRNA expression,9380 mRNA [1],downregulated
same,2569654 mRNA expression,2569654 mRNA [2],significantly downregulated
same,2552 mRNA expression,2552 mRNA [3],downregulate
same,19319 mRNA expression,19319 mRNA [4],upregulated
same,43969 expression,43969,downregulated
same,8921 mRNA downregulated,8921 mRNA [5],0.59 fold
same,554 mRNA downregulated,554 mRNA,0.68 fold
same,16408 mRNA expression,16408 mRNA,down-regulated
same,42028 expression,42028,down-regulated
same,112091 expression,112091,down-regulated
same,54946 mRNA upregulated,54946 mRNA,2.0 fold
cholestyramine,10653 mRNA expression,10653 mRNA,downregualted
same,9325 mRNA upregulated,9325 mRNA,1.4 fold
same,21668 mRNA expression,21668 mRNA,marked increase
same,10102 mRNA expression,10102 mRNA,significantly upregulated
same,8925 mRNA expression,8925 mRNA,upregulated
same,8701 mRNA expression,8701 mRNA,upregulated
same,3533 mRNA expression,3533 mRNA,significantly downregulated
same,9462 mRNA expression,9462 mRNA,upregulated
same,17729 mRNA expression,17729 mRNA,upregulated
same,9380 mRNA expression,9380 mRNA [6],upregulated
same,2569654 mRNA expression,2569654 mRNA [7],upregulated
same,53656 mRNA upregulated,53656 mRNA,1.8 fold
same,2552 mRNA expression,2552 mRNA [8],upregulated
same,19319 mRNA expression,19319 mRNA [9],upregulated
same,increase in 8921 mRNA expression,8921 mRNA [10],1.5 fold
